Laboratory results from US20030073236A1, “p193 proteins and nucleic acids, and uses thereof” (priority 1999, published 2003).

What was measured:
[1] = tested on: ES-derived cardiomyocytes; experiment: Isoproterenol effect on growth of ES-derived cardiomyocytes co-expressing p193dn and p53dn; format: cell-based; conditions: cells with MHC-p193dn and MHC-p53dn, isoproterenol 1 μM mg/ml for 58 days, vs. absence
Source text: It follows then that if the p193 and p53 pathways are blocked, hypertrophic stimuli might result in direct cell cycle activity. To test this, undifferentiated ES cells were transfected with the MHC-neor/pGK-hygror transgene in combination with both the MHC-p193dn and MHC-p53dn transgenes. Transfected cells were enriched by virtue of their resistance to hygromycin, and then induced to differentiate. The ES-derived cardiomyocytes were then enriched by virtue of their resistance to G418. Cardiomyocyte growth was then compared in these cultures in the presence vs. absence of exogenous isoproterenol (1 μM mg/ml) for 58 days.

SV40 T-Ag = target: T1, SV40 T-Ag (Simian virus 40, UniProt P03070); experiment: p193/T-Ag binding by immune precipitation; conditions: radiolabeled in vitro translated p193 mixed with recombinant T-Ag
T1 construct: construct designated CMV-T-Ag; expressed in transfected cells; host or cells: NIH-3T3
Method: A T-Ag cDNA was subcloned into pcDNA3.1 expression vector (which lacks the epitope tag; construct designated CMV-T-Ag). For IP/Western analyses, NIH-3T3 cells (ATCC, Rockville Md.) were co-transfected with […] and CMV-p193myc using the calcium phosphate approach (Sambrook, J., Fritsch, E. F., and Maniatis, T. (1989) Molecular cloning, Cold Spring Harbor Laboratory Press, Cold Spring Harbor, N.Y.). Protein (1 mg) prepared from the transfected cells was reacted with an anti-T-Ag (PAb419), an anti-myc (9E10, Santa Cruz Biotech.), or an IgG subtype-matched non-specific antibody (anti-GST, Pharmacia), and the resulting immune complexes were subjected to Western blot analysis. 100 μg of total protein from non-transfected and transfected cells were included as controls. The blots were probed with an anti-myc (9E10) or anti-T-Ag (PAb416) antibody, and signal was developed using the ECL method. […] Immune complex was then visualized via autoradiography (p193) or Western blotting (T-Ag) as described above.

T1 sequence (Q8VE73 whole entry): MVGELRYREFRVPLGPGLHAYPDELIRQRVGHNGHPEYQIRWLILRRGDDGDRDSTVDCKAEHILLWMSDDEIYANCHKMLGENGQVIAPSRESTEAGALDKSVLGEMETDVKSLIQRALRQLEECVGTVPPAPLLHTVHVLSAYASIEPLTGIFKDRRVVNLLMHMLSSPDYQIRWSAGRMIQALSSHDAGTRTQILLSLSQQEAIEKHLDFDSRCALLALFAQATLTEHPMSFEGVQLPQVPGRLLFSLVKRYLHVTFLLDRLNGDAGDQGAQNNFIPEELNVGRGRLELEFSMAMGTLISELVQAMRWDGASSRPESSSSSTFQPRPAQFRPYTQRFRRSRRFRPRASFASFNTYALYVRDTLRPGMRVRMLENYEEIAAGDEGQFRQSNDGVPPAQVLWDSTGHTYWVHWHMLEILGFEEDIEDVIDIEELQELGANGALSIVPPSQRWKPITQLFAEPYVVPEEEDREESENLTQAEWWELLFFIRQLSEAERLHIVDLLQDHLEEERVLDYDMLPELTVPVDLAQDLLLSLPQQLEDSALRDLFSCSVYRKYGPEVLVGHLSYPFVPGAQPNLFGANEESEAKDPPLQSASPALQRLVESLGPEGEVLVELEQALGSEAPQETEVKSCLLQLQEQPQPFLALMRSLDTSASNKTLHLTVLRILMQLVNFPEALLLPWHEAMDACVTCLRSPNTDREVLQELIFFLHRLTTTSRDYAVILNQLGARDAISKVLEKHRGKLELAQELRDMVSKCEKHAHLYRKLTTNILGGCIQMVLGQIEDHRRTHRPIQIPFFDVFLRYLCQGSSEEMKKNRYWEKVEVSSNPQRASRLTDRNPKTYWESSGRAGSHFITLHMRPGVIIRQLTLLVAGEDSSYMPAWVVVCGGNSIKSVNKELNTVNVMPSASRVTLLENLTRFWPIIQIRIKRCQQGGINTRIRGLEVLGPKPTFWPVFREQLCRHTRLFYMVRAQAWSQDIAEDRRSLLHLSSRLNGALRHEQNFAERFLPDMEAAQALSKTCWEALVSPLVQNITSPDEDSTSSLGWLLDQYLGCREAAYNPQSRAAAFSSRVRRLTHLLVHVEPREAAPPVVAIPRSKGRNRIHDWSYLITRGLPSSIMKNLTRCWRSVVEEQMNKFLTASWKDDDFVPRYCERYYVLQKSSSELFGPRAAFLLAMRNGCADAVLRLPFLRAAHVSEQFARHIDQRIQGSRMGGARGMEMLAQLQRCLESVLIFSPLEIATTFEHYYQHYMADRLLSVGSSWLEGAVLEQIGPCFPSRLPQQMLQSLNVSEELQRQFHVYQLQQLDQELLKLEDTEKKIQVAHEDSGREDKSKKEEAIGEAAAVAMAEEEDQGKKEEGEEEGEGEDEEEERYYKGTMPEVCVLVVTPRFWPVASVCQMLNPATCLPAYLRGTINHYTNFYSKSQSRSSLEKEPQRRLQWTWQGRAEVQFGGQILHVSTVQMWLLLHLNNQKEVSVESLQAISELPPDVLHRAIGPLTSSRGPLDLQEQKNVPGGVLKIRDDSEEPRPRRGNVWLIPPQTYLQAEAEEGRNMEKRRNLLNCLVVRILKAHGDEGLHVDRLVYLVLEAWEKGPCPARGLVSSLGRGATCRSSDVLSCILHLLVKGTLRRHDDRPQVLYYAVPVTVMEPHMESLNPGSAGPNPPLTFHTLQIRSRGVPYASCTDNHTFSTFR
T1 sequence (P03070 whole entry): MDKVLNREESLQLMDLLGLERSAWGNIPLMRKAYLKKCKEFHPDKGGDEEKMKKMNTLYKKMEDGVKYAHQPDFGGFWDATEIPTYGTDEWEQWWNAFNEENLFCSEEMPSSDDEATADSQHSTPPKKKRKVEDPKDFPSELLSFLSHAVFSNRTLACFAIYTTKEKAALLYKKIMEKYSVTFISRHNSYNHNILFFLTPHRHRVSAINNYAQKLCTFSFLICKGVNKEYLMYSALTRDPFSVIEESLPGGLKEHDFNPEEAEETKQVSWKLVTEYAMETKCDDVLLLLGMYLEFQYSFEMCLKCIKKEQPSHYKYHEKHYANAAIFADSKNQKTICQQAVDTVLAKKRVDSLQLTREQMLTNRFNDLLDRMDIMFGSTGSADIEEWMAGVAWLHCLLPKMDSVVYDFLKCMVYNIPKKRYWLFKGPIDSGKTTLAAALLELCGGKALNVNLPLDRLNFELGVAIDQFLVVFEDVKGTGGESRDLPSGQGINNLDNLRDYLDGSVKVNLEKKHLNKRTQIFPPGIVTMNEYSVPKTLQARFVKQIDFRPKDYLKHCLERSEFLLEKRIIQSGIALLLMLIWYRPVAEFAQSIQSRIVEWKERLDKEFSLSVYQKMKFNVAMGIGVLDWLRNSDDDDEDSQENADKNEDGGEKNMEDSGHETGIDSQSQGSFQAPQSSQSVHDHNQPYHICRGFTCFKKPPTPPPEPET

Row | Compound | cardiomyocyte colony size [1] | binding of in vitro translated protein to recombinant T-Ag (IP) (SV40 T-Ag)
1 | CC(C)NCC(O)c1ccc(O)c(O)c1 (centres unmarked) [isoproterenol] | Markedly enhanced cardiomyocyte colony size | 
2 | p193: apoptosis associated, T-Ag binding protein of 1689 amino acid residues (mouse, SEQ. I.D. NO. 2); here in vitro translated |  | present in immune complex generated with anti-T-Ag antibody
